In patent US20090238808A1, “Process for the identification of novel enzyme interacting compounds” (priority 2005, published 2009):

Assays:
Test in all cases: In-lysate competition binding with kinobeads, Jurkat lysate, iTRAQ MS, relative intensity of identified proteins (Table 22)
Conditions in all cases: DMSO control = 1.0
[1] = target: T1, proteins captured on kinobeads from Jurkat cell lysate (Homo sapiens, UniProt P45983)
T1 construct: endogenous in cells; host or cells: Jurkat clone E6-1 lysate
Description: (§1) This example illustrates competition binding in cell lysates (see particularly the third aspect of the invention). A test compound, Bisindolylmaleimide VIII (Bis VIII, a well known kinase inhibitor; Davies et al., 2000. Specificity and mechanism of action of some commonly used protein kinase inhibitors. Biochemical Journal 351 (Pt 1): 95-105) was added to a cell lysate thereby allowing the test compound to bind to the target proteins in the lysate. Then the lysate was contacted with the kinobeads affinity matrix to capture remaining free target proteins. The proteins bound to the kinobeads matrix were then eluted with detergent-containing buffer, separated on a SDS-polyacryamide gel and analyzed by immunodetection (Western blots) or mass spectrometry detection.
(§2) For the quantitative detection of proteins by mass spectrometry proteins were eluted from the affinity matrix and subsequently separated by SDS-Polyacrylamide gel elecrophoresis. Suitable gel areas were cut out and subjected to in-gel proteolytic digestion with trypsin.
(§3) Four tryptic digest samples (corresponding to three different Bis VIII concentrations in the lysate and one DMSO control) were labeled with ITRAQ reagents and the combined samples were analyzed in a single LC-MS/MS mass spectrometry analysis followed by peak quantification in the MS/MS spectrum (Ross et al., 2004. Multiplexed protein quantitation in Saccharomyces cerevisiae using amine-reactive isobaric tagging reagents. Mol. Cell. Proteomics 3(12): 1154-1169). […] Binding curves for individual kinases are shown (FIG. 5). The relative intensity 50 (RI50) values representing the affinity of kinase-compound pairs are similar to IC50 values reported by kinase enzyme assays (Davies et al., 2000. Specificity and mechanism of action of some commonly used protein kinase inhibitors. Biochemical Journal 351 (Pt 1): 95-105).
(§4) Aliqots of Jurkat lysate (10 mg protein) were incubated with different Bis VIII concentrations for one hour at 4° C. (0.025 μM, 0.074 μM, 0.22 μM, 0.67 μM, 2.0 μM and 6.0 μM final concentration of Bis VIII). To this end Bis VIII solutions were prepared in 100% DMSO as solvent that corresponded to 200 fold desired final Bis VIII concentration (Bis VIII from Alexis Biochemicals cat. number ALX 270-056). Five μl of these solutions were added to 1 ml of lysate resulting in the indicated final concentrations. For a control experiment 5 μl of DMSO without Bis VIII were used.
(§5) To each preincubated lysate sample 40 μl of kinobeads (see example 1) were added and incubated for one hour at 4° C. During the incubation the tubes were rotated on an end-over-end shaker (Roto Shake Genie, Scientific Industries Inc.). Beads were collected by centrifugation, transfered to Mobicol-columns (MoBiTech 10055) and washed with 10 ml 1×DP buffer containing 0.4% NP40 detergent, followed by a wash with 5 ml 1×DP buffer with 0.2% NP40. To elute the bound proteins, 100 μl 2×SDS sample buffer was added, the column was heated for 30 minutes at 50° C. and the eluate was transferred to a microfuge tube by centrifugation. Proteins were then separated by SDS-Polyacrylamide electrophoresis (SDS-PAGE). The composition and preparation of buffers is described in example 2.
(§6) The peptide extracts of samples treated with different concentrations of the test compound (0.074 μM, 0.22 μM and 0.67 μM Bis VIII) and the solvent control (0.5% DMSO) were treated with different isomers of the isobaric tagging reagent (iTRAQ Reagents Multiplex Kit, part number 4352135, Applied Biosystems, Foster City, Calif., USA). The iTRAQ reagents are a set of multiplexed, amine-specific, stable isotope reagents that can label all peptides in up to four different biological samples enabling simultaneous identification and quantitation of peptides. The iTRAQ reagents were used according to instructions provided by the manufacturer. […]

[2] = target: T2, proteins captured on kinobeads from Jurkat cell lysate (Homo sapiens, UniProt P30291)
T2 construct: endogenous in cells; host or cells: Jurkat clone E6-1 lysate
Description: as §1, §2, §3, §4, §5, §6

[3] = target: T3, proteins captured on kinobeads from Jurkat cell lysate (Homo sapiens, UniProt O14976)
T3 construct: endogenous in cells; host or cells: Jurkat clone E6-1 lysate
Description: as §1, §2, §3, §4, §5, §6

[4] = target: T4, proteins captured on kinobeads from Jurkat cell lysate (Homo sapiens, UniProt Q13557)
T4 construct: endogenous in cells; host or cells: Jurkat clone E6-1 lysate
Description: as §1, §2, §3, §4, §5, §6

[5] = target: T5, proteins captured on kinobeads from Jurkat cell lysate (Homo sapiens, UniProt P24941)
T5 construct: endogenous in cells; host or cells: Jurkat clone E6-1 lysate
Description: as §1, §2, §3, §4, §5, §6

[6] = target: T6, proteins captured on kinobeads from Jurkat cell lysate (Homo sapiens, UniProt Q14289)
T6 construct: endogenous in cells; host or cells: Jurkat clone E6-1 lysate
Description: as §1, §2, §3, §4, §5, §6

[7] = target: T7, proteins captured on kinobeads from Jurkat cell lysate (Homo sapiens, UniProt P54619)
T7 construct: endogenous in cells; host or cells: Jurkat clone E6-1 lysate
Description: as §1, §2, §3, §4, §5, §6

[8] = target: T8, proteins captured on kinobeads from Jurkat cell lysate (Homo sapiens, UniProt Q16539)
T8 construct: endogenous in cells; host or cells: Jurkat clone E6-1 lysate
Description: as §1, §2, §3, §4, §5, §6

[9] = target: T9, proteins captured on kinobeads from Jurkat cell lysate (Homo sapiens, UniProt P41240)
T9 construct: endogenous in cells; host or cells: Jurkat clone E6-1 lysate
Description: as §1, §2, §3, §4, §5, §6

[10] = target: T10, proteins captured on kinobeads from Jurkat cell lysate (Homo sapiens, UniProt P12931)
T10 construct: endogenous in cells; host or cells: Jurkat clone E6-1 lysate
Description: as §1, §2, §3, §4, §5, §6

[11] = target: T11, proteins captured on kinobeads from Jurkat cell lysate (Homo sapiens, UniProt P45984)
T11 construct: endogenous in cells; host or cells: Jurkat clone E6-1 lysate
Description: as §1, §2, §3, §4, §5, §6

[12] = target: T12, proteins captured on kinobeads from Jurkat cell lysate (Homo sapiens, UniProt Q9Y478)
T12 construct: endogenous in cells; host or cells: Jurkat clone E6-1 lysate
Description: as §1, §2, §3, §4, §5, §6

[13] = target: T13, proteins captured on kinobeads from Jurkat cell lysate (Homo sapiens, UniProt Q13131)
T13 construct: endogenous in cells; host or cells: Jurkat clone E6-1 lysate
Description: as §1, §2, §3, §4, §5, §6

[14] = target: T14, proteins captured on kinobeads from Jurkat cell lysate (Homo sapiens, UniProt O14965)
T14 construct: endogenous in cells; host or cells: Jurkat clone E6-1 lysate
Description: as §1, §2, §3, §4, §5, §6

[15] = target: T15, proteins captured on kinobeads from Jurkat cell lysate (Homo sapiens, UniProt Q9HCP0)
T15 construct: endogenous in cells; host or cells: Jurkat clone E6-1 lysate
Description: as §1, §2, §3, §4, §5, §6

T7 sequence (P54619 whole entry): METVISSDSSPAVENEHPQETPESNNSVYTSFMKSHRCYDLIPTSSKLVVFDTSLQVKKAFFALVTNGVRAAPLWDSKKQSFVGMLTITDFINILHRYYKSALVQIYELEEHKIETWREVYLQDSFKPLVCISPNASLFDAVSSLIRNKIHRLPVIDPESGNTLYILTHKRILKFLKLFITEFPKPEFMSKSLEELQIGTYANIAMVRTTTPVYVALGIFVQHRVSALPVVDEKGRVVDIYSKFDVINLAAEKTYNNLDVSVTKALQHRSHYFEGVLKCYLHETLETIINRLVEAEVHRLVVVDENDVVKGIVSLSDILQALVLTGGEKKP
T14 sequence (O14965 whole entry): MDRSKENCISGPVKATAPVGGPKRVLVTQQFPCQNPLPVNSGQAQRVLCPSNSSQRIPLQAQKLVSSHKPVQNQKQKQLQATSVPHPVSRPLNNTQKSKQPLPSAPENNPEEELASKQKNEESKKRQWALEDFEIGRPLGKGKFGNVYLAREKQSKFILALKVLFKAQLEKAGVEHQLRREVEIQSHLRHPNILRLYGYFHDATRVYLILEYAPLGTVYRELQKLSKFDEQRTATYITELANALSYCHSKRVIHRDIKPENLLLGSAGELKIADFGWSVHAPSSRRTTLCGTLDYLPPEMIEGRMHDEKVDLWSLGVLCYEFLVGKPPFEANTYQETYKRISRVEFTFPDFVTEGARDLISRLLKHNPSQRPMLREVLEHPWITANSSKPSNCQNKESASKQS
T13 sequence (Q13131 whole entry): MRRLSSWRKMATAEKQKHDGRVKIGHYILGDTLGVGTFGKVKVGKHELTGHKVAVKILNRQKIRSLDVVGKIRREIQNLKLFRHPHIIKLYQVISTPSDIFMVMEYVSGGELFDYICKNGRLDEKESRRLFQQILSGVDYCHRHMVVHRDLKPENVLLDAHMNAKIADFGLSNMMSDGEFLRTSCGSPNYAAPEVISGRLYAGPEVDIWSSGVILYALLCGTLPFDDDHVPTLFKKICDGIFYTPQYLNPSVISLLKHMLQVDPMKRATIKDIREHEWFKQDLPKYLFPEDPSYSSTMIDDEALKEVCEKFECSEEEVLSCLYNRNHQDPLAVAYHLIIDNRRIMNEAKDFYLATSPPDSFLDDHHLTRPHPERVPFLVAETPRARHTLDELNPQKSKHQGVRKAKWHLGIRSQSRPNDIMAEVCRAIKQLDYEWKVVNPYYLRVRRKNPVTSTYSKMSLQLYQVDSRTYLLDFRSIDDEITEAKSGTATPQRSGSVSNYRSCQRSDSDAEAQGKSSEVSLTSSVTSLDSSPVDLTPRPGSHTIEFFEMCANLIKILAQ
T6 sequence (Q14289 whole entry): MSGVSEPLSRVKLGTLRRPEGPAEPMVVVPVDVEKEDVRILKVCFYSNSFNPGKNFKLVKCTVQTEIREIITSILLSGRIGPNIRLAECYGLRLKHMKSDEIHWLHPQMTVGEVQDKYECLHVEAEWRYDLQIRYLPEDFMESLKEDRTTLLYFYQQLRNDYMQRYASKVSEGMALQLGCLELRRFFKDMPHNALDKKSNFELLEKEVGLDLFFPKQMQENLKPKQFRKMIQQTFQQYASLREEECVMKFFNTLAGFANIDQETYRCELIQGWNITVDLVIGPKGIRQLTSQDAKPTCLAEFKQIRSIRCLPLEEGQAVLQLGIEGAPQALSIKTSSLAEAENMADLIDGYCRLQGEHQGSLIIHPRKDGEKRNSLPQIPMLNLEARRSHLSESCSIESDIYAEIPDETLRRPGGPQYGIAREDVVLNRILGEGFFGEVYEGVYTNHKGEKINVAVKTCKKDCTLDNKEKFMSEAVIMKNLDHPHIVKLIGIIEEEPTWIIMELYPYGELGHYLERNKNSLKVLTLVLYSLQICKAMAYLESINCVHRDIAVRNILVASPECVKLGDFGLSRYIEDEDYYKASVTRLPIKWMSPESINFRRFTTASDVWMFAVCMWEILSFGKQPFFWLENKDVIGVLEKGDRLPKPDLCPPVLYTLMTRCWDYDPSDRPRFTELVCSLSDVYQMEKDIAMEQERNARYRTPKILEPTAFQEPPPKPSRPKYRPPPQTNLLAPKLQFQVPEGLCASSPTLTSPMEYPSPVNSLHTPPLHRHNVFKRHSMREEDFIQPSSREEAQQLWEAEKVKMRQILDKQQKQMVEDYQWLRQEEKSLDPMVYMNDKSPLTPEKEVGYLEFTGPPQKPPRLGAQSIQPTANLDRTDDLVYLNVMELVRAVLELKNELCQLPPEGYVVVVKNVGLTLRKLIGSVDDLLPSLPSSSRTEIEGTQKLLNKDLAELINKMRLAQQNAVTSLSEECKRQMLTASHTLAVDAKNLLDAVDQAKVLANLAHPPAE
T11 sequence (P45984 whole entry): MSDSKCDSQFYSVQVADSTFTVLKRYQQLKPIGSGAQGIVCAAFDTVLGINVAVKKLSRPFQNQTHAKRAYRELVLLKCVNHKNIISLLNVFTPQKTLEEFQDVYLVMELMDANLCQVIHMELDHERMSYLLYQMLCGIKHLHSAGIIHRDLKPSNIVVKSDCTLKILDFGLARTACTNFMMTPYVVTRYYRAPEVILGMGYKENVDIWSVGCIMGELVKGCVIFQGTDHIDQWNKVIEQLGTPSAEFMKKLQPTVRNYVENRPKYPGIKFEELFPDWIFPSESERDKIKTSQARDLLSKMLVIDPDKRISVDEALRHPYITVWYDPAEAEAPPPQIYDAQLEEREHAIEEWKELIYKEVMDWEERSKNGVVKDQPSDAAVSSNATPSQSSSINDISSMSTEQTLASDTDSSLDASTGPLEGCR
T10 sequence (P12931 whole entry): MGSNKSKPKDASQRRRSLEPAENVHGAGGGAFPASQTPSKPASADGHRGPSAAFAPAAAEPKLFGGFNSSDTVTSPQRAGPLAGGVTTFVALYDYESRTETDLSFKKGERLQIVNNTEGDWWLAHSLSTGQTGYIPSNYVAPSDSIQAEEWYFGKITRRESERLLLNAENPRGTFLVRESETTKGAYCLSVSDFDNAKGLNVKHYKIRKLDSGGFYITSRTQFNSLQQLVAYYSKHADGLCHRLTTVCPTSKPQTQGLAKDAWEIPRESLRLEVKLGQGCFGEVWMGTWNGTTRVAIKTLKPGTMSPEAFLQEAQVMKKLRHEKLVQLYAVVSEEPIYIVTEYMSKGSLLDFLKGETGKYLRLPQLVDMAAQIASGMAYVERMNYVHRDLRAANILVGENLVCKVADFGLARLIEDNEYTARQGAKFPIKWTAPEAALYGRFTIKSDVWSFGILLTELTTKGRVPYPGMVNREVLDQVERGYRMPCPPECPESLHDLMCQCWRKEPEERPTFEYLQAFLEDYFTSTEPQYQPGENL
T3 sequence (O14976 whole entry): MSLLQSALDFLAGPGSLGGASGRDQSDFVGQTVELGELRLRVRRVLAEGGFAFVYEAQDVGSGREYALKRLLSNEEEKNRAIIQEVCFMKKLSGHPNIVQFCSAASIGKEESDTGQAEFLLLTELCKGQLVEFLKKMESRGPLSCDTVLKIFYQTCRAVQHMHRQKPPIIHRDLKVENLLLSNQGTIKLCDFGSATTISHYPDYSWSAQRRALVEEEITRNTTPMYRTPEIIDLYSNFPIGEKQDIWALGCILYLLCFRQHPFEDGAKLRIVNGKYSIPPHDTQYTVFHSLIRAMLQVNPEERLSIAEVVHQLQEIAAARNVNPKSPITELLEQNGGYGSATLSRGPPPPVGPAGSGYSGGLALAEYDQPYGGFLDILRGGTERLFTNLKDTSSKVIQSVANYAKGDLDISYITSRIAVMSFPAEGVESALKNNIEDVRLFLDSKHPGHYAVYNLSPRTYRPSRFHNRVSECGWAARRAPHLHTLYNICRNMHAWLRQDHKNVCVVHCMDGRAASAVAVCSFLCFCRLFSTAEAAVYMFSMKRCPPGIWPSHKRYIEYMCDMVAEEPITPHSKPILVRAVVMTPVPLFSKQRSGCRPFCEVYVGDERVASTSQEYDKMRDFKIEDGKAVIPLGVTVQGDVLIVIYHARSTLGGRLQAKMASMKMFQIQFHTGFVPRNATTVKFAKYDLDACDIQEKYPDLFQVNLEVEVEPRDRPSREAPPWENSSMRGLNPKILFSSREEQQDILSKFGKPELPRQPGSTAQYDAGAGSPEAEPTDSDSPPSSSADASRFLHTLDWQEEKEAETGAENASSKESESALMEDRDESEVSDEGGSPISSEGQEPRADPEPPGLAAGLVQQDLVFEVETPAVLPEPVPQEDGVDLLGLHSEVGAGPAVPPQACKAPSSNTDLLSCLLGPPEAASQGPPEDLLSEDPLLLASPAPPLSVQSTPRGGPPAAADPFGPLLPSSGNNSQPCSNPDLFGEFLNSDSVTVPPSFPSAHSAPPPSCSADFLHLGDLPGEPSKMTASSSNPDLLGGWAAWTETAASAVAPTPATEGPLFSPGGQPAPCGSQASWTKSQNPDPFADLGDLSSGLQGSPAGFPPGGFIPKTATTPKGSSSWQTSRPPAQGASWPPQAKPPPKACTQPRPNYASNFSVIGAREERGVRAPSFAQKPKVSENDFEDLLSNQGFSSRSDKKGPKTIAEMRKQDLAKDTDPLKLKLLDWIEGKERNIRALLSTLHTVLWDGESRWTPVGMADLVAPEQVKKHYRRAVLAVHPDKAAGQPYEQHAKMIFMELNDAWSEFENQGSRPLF
T1 sequence (P45983 whole entry): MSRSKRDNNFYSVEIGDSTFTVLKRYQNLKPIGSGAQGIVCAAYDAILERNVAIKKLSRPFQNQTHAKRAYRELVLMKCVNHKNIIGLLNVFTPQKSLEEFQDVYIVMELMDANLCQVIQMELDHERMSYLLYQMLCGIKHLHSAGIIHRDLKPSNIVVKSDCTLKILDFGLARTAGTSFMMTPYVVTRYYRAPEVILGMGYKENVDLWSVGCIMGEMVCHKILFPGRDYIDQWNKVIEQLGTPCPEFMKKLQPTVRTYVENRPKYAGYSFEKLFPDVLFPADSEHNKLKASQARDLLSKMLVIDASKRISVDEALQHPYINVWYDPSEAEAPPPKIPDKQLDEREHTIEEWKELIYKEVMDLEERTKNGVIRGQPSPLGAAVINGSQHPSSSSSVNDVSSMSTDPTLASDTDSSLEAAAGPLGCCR

- Relative Intensity, JNK1 (MAPK8) ([1]; 0.074 uM in lysate): 0.91
- Relative Intensity, JNK1 (MAPK8) ([1]; 0.67 uM in lysate): 0.83
- Relative Intensity, Wee1 ([2]; 0.074 uM in lysate): 1.21
- Relative Intensity, Wee1 ([2]; 0.67 uM in lysate): 1.14
- Relative Intensity, GAK ([3]; 0.074 uM in lysate): 0.92
- Relative Intensity, GAK ([3]; 0.67 uM in lysate): 0.97
- Relative Intensity, CaMK2d ([4]; 0.074 uM in lysate): 0.91
- Relative Intensity, CaMK2d ([4]; 0.67 uM in lysate): 0.88
- Relative Intensity, CDK2 ([5]; 0.074 uM in lysate): 0.89
- Relative Intensity, CDK2 ([5]; 0.67 uM in lysate): 0.65
- Relative Intensity, PYK2 (PTK2B) ([6]; 0.074 uM in lysate): 0.82
- Relative Intensity, PYK2 (PTK2B) ([6]; 0.67 uM in lysate): 0.74
- Relative Intensity, PRKAG1 ([7]; 0.074 uM in lysate): 0.78
- Relative Intensity, PRKAG1 ([7]; 0.67 uM in lysate): 0.68
- Relative Intensity, p38a (MAPK14) ([8]; 0.074 uM in lysate): 0.82
- Relative Intensity, p38a (MAPK14) ([8]; 0.67 uM in lysate): 0.93
- Relative Intensity, CSK ([9]; 0.074 uM in lysate): 0.84
- Relative Intensity, CSK ([9]; 0.67 uM in lysate): 0.89
- Relative Intensity, SRC ([10]; 0.074 uM in lysate): 0.93
- Relative Intensity, SRC ([10]; 0.67 uM in lysate): 0.94
- Relative Intensity, JNK2 (MAPK9) ([11]; 0.074 uM in lysate): 0.97
- Relative Intensity, JNK2 (MAPK9) ([11]; 0.67 uM in lysate): 1.04
- Relative Intensity, PRKAB1 ([12]; 0.074 uM in lysate): 0.91
- Relative Intensity, PRKAB1 ([12]; 0.67 uM in lysate): 0.79
- Relative Intensity, AMPKa1 (PRKAA1) ([13]; 0.074 uM in lysate): 0.88
- Relative Intensity, AMPKa1 (PRKAA1) ([13]; 0.67 uM in lysate): 0.91
- Relative Intensity, AurA (STK6) ([14]; 0.074 uM in lysate): 0.90
- Relative Intensity, AurA (STK6) ([14]; 0.67 uM in lysate): 0.87
- Relative Intensity, CK1g1 (CSNK1G1) ([15]; 0.074 uM in lysate): 1.01
- Relative Intensity, CK1g1 (CSNK1G1) ([15]; 0.67 uM in lysate): 0.96
SMILES: Cn1cc(C2=C(c3cn(CCCN)c4ccccc34)C(=O)NC2=O)c2ccccc21 [Bis VIII, Bisindolylmaleimide VIII]
